Reference: paper PMC3499368, “Evolution of Minimal Specificity and Promiscuity in Steroid Hormone Receptors” (PLoS Genetics, 2012)
Read-outs that look alike come from different tables or passages of the source.

Tests used:
AncSR2-LBD = assay: luciferase reporter gene assay, Gal4-DBD fusion of AncSR2-LBD in CHO-K1 cells, activation; assay type: cell-based; conditions: for EC50: AncSR2, representative dose activation curves (Fig. S4) and Table S5 sections c-i; for activation of AncSR2 (in words): luciferase reporter; for Ratio H1/H2 of EC50, preference for 3-hydroxy vs. 3-keto group / Ratio H2/H1 of EC50, preference for 3-hydroxy vs. 3-keto group: AncSR2, Table S5 section e, pairs H1/H2: 18/17, 9/6, 15/13; for Ratio H1/H2 of EC50, preference for 19-H vs. 19-methyl group / Ratio H2/H1 of EC50, preference for 19-H vs. 19-methyl group: AncSR2, Table S5 section i, pairs H1/H2: 8/6, 17/13, 18/15; for Ratio H1/H2 of EC50, preference for 17-acetyl vs. 17-hydroxy group / Ratio H2/H1 of EC50, preference for 17-acetyl vs. 17-hydroxy group: AncSR2, Table S5 section d, pairs H1/H2: 13/6, 17/8, 15/9, 16/10, 19/23
Text: To experimentally test these hypotheses, we synthesized cDNAs for the AncSR1 and AncSR2 LBD protein sequences, expressed them as Gal4-DBD fusion constructs, and characterized their sensitivity to hormones using luciferase reporter gene assays. […] It was unresponsive to a broad array of androgens, progestagens, and corticosteroids, as well as cholesterol (Figure 2A, Figure S3).
For AncSR2, we identified all plausible alternate reconstructions (those with posterior probability >0.20 excluding biochemically similar K/R, D/E, S/T, and I/L differences) and introduced each alternate state individually into the AncSR2 background using the Quikchange Mutagenesis kit (Stratagene), verified clones by sequencing, and repeated the activation assays with each version of AncSR2 (Figure S6). The ML AncSR2 sequence reconstructed on the ML tree had high baseline activation in the absence of ligand; this phenotype is almost certainly an artifact, because constitutive baseline activity is not present in any of AncSR2's extant descendants; it is well-established that some amino acid replacements can cause nuclear receptors to become constitutive by marginally stabilizing the active conformation in the absence of hormone. […] The “constitutive” Leu79 state is weakly supported on the ML tree (PP = 0.59), and has no support (PP = 0.00) on the phylogeny that is most parsimonious in terms of gene duplications and losses; in contrast, the “non-constitutive” state Met79 has PP = 0.41 on the ML tree and PP = 1.00 on the rearranged gene duplication/loss tree (Figure S12, Table S8). The AncSR2 sequence used for all experiments reported in the text therefore contains state Met79. The other alternate reconstructions were then reintroduced into this AncSR2 sequence: none qualitatively changed the receptor's sensitivity to the various classes of steroid hormones, except for A171V, which conferred constitutive activity (Figure S6).

AncSR1-LBD = assay: luciferase reporter gene assay, Gal4-DBD fusion of AncSR1-LBD in CHO-K1 cells, activation; assay type: cell-based; conditions: for activation of AncSR1 (in words): luciferase reporter; for Ratio H1/H2 of EC50, preference for aromatized A-ring / Ratio H2/H1 of EC50, preference for aromatized A-ring: AncSR1, Table S5 section b, pairs H1/H2: 18/19, 22/20, 8/23, listed as given under Hormone 1; for EC50: AncSR1, representative dose activation curves (Fig. S3) and Table S5 section b
Text: To experimentally test these hypotheses, we synthesized cDNAs for the AncSR1 and AncSR2 LBD protein sequences, expressed them as Gal4-DBD fusion constructs, and characterized their sensitivity to hormones using luciferase reporter gene assays.

[1] = AncSR2, Table S5 section f, pairs H1/H2: 1/6, 2/7, listed as given under Hormone 1
[2] = AncSR2, Table S5 section g, pairs H1/H2: 1/3, 2/4, listed as given under Hormone 1
[3] = listed as given under Hormone 1
[4] = AncSR2, Table S5 section h, pairs H1/H2: 3/4, 6/7, listed as given under Hormone 1

**Q.** C[C@H](O)[C@H]1CC[C@H]2[C@@H]3CCC4=CC(=O)CC[C@]4(C)[C@H]3CC[C@]12C [20α hydroxyprogesterone] was tested. Which EC50 (AncSR2-LBD; read-out: EC50) did it give?
**A.** 0.019 µM

**Q.** With CC(C)CCC[C@@H](C)[C@H]1CC[C@H]2[C@@H]3CC=C4C[C@@H](O)CC[C@]4(C)[C@H]3CC[C@]12C [cholesterol] as the molecule, how does the “activation of AncSR2 (in words)” value (AncSR2-LBD) read?
**A.** completely unresponsive

**Q.** What about the “activation of AncSR1 (in words)” value (AncSR1-LBD) of the same molecule?
**A.** unresponsive

**Q.** How did the EC50 (AncSR2-LBD; read-out: EC50) turn out when C[C@]12CCC(=O)C=C1CC[C@@H]1[C@@H]2[C@@H](O)C[C@]2(C=O)[C@@H](C(=O)CO)CC[C@@H]12 [aldosterone] was run?
**A.** 0.0019 µM

**Q.** What does the source list for C[C@]12CCC(=O)C=C1CC[C@@H]1[C@@H]2CC[C@@]2(C)[C@H]1CC[C@]2(O)C(=O)CO [11-deoxycortisol]?
**A.** Ratio H1/H2 of EC50, preference for 21-OH group vs. H group (AncSR2-LBD; [1]): 0.08; Ratio H2/H1 of EC50, preference for 21-OH group vs. H group (AncSR2-LBD; [1]): 12.67; Ratio H1/H2 of EC50, preference for 11-OH vs. H group (AncSR2-LBD; [2]): 0.15; Ratio H2/H1 of EC50, preference for 11-OH vs. H group (AncSR2-LBD; [2]): 6.53; EC50 (AncSR2-LBD; read-out: EC50): 0.0015 µM

**Q.** Which results are given for CC12CCC3C4CCC(O)C=C4CCC3C1CCC2O (stereo not shown) [bolandiol]?
**A.** Ratio H1/H2 of EC50, preference for 3-hydroxy vs. 3-keto group (AncSR2-LBD; [3]): 0.29; Ratio H2/H1 of EC50, preference for 3-hydroxy vs. 3-keto group (AncSR2-LBD; [3]): 3.45; Ratio H1/H2 of EC50, preference for 19-H vs. 19-methyl group (AncSR2-LBD; [3]): 0.08; Ratio H2/H1 of EC50, preference for 19-H vs. 19-methyl group (AncSR2-LBD; [3]): 13.10; EC50 (AncSR2-LBD): 0.02 µM; Ratio H1/H2 of EC50, preference for aromatized A-ring (AncSR1-LBD): 36.02; Ratio H2/H1 of EC50, preference for aromatized A-ring (AncSR1-LBD): 0.03; EC50 (AncSR1-LBD): 1.77 µM

**Q.** With CC(=O)C1CCC2C3CCC4=CC(O)CCC4(C)C3CCC12C (stereo not shown) [4-pregnenolone] as the molecule, how does the “Ratio H1/H2 of EC50, preference for 3-hydroxy vs. 3-keto group” value (AncSR2-LBD; [3]) read?
**A.** 0.40

**Q.** And the “Ratio H2/H1 of EC50, preference for 3-hydroxy vs. 3-keto group” value (AncSR2-LBD; [3])?
**A.** 2.50

**Q.** And the EC50 (AncSR2-LBD)?
**A.** 0.0022 µM

**Q.** For CC/C(=C(/CC)c1ccc(O)cc1)c1ccc(O)cc1 [Diethylstilbestrol], which “activation of AncSR2 (in words)” value (AncSR2-LBD) is on record?
**A.** not activated

**Q.** And the “activation of AncSR1 (in words)” value (AncSR1-LBD)?
**A.** activated

**Q.** Which results are given for CC(=O)C1CCC2C3CCC4=CC(=O)CCC4C3CCC12C (stereo not shown) [19-norprogesterone]?
**A.** Ratio H1/H2 of EC50, preference for 19-H vs. 19-methyl group (AncSR2-LBD; [3]): 0.29; Ratio H2/H1 of EC50, preference for 19-H vs. 19-methyl group (AncSR2-LBD; [3]): 3.44; EC50 (AncSR2-LBD): 0.0016 µM; Ratio H2/H1 of EC50, preference for aromatized A-ring (AncSR1-LBD): 0.02; EC50 (AncSR1-LBD): > 10 µM

**Q.** Which EC50 (AncSR2-LBD) does the source give for C[C@]12CCC(=O)C=C1CC[C@@H]1[C@@H]2CC[C@]2(C)C(=O)CC[C@@H]12 [4-androstenedione] here?
**A.** 0.411 µM

**Q.** What about the “Ratio H1/H2 of EC50, preference for aromatized A-ring” value (AncSR1-LBD) of the same molecule?
**A.** 144.93

**Q.** What about the “Ratio H2/H1 of EC50, preference for aromatized A-ring” value (AncSR1-LBD) of the same molecule?
**A.** 0.01

**Q.** What about the EC50 (AncSR1-LBD) of the same molecule?
**A.** > 10 µM

**Q.** Which results are given for CC12CCC3C4CCC(=O)C=C4CCC3C1CCC2O (stereo not shown) [19-nortestosterone]?
**A.** Ratio H1/H2 of EC50, preference for 17-acetyl vs. 17-hydroxy group (AncSR2-LBD; [3]): 43.13; Ratio H2/H1 of EC50, preference for 17-acetyl vs. 17-hydroxy group (AncSR2-LBD; [3]): 0.02; Ratio H1/H2 of EC50, preference for 19-H vs. 19-methyl group (AncSR2-LBD; [3]): 0.59; Ratio H2/H1 of EC50, preference for 19-H vs. 19-methyl group (AncSR2-LBD; [3]): 1.68; EC50 (AncSR2-LBD): 0.069 µM

**Q.** Which results are given for C[C@]12CC[C@H]3[C@@H](CCC4=C[C@@H](O)CC[C@@]43C)[C@@H]1CC[C@@H]2O [4-androstenediol]?
**A.** Ratio H1/H2 of EC50, preference for 17-acetyl vs. 17-hydroxy group (AncSR2-LBD; [3]): 119.09; Ratio H2/H1 of EC50, preference for 17-acetyl vs. 17-hydroxy group (AncSR2-LBD; [3]): 0.01; Ratio H1/H2 of EC50, preference for 3-hydroxy vs. 3-keto group (AncSR2-LBD; [3]): 2.26; Ratio H2/H1 of EC50, preference for 3-hydroxy vs. 3-keto group (AncSR2-LBD; [3]): 0.44; EC50 (AncSR2-LBD): 0.262 µM

**Q.** How did the “Ratio H1/H2 of EC50, preference for 17-acetyl vs. 17-hydroxy group” value (AncSR2-LBD; [3]) turn out when C[C@]12CC[C@H]3[C@@H](CC=C4C[C@@H](O)CC[C@@]43C)[C@@H]1CC[C@@H]2O [5-androstenediol] was run?
**A.** 21.84

**Q.** And the “Ratio H2/H1 of EC50, preference for 17-acetyl vs. 17-hydroxy group” value (AncSR2-LBD; [3])?
**A.** 0.05

**Q.** What about the EC50 (AncSR2-LBD) of the same molecule?
**A.** 0.083 µM

**Q.** How did the EC50 (AncSR2-LBD; read-out: EC50) turn out when CC(=O)[C@@]1(O)CC[C@H]2[C@@H]3CCC4=CC(=O)CC[C@]4(C)[C@H]3CC[C@@]21C [17α-hydroxyprogesterone] was run?
**A.** 0.019 µM

**Q.** Which “Ratio H1/H2 of EC50, preference for 17a-H group vs. -OH group” value (AncSR2-LBD; [4]) does the source give for C[C@]12C[C@H](O)[C@H]3[C@@H](CCC4=CC(=O)CC[C@@]43C)[C@@H]1CC[C@@H]2C(=O)CO [corticosterone] here?
**A.** 0.03

**Q.** And the “Ratio H2/H1 of EC50, preference for 17a-H group vs. -OH group” value (AncSR2-LBD; [4])?
**A.** 31.61

**Q.** What about the EC50 (AncSR2-LBD; read-out: EC50) of the same molecule?
**A.** 0.00031 µM

**Q.** What does the source list for O=c1c(-c2ccc(O)cc2)coc2cc(O)cc(O)c12 [Genistein]?
**A.** activation of AncSR2 (in words) (AncSR2-LBD): not activated; activation of AncSR1 (in words) (AncSR1-LBD): activated

**Q.** Which EC50 (AncSR2-LBD; read-out: EC50) does the source give for CC(=O)C1CCC2C3CC=C4CC(O)CCC4(C)C3CCC12C (stereo not shown) [5-pregnenolone] here?
**A.** 0.0038 µM

**Q.** C[C@@H](O)[C@H]1CC[C@H]2[C@@H]3CCC4=CC(=O)CC[C@]4(C)[C@H]3CC[C@]12C [20β hydroxyprogesterone] was tested. Which EC50 (AncSR2-LBD; read-out: EC50) did it give?
**A.** 0.01 µM
